US12435044B2, “Pyridazinone herbicides and pyridazinone intermediates used to prepare a herbicide” (FMC Corporation, priority 2018, dated 2025)

How the values were obtained:
Assay in all cases: Test I pre-/postemergence, mixtures of Cpd. No. 20 with saflufenacil or pyroxasulfone
Type in all cases: in vivo
[1] = tested on: mare's tail (ERICA; Conyza canadensis); conditions: for Plant response rating (0 to 100 scale): Preemergence, ERICA
Source text: (§1) This test evaluated the effect of mixtures of Cpd. No. 20 with saflufenacil or pyroxasulfone on several plant species. Seeds of plant species selected from corn (ZEAMD; Zea mays, cv. ‘Pioneer 1184’), soybean (GLXMA; Glycine max, cv. Pioneer 35T58), giant foxtail (SETFA; Setaria faberi), palmer amaranth (AMAPA; Amaranthus palmeri), common waterhemp (AMATU; Amaranthus rudis), mare's tail (ERICA; Conyza canadensis), and common ragweed (AMBEL; Ambrosia artemisiifolia) were planted in pots containing Tama Silt Loam soil and treated preemergence with a directed soil spray using test chemicals formulated in a non-phytotoxic solvent mixture which included a surfactant.
(§2) At the same time, plants selected from these crop and weed species were planted in pots containing Redi-Earth® planting medium (Scotts Company, 14111 Scottslawn Road, Marysville, Ohio 43041) comprising spaghnum peat moss, vermiculite, wetting agent and starter nutrients and treated postemergence with test chemicals formulated in the same manner. Plants ranged in height from 2 to 10 cm and were in the one- to two-leaf stage for the postemergence treatment. Treated plants and untreated controls were maintained in a greenhouse for approximately 14-21 d, after which time all treated plants were compared to untreated controls and visually evaluated for injury. Plant response ratings, summarized in Tables 11 to 14, are based on a 0 to 100 scale where 0 is no effect and 100 is complete control. A dash (-) response means no test result. Test results are presented as a mean of 4 reps.

[2] = tested on: corn (ZEAMD; Zea mays, cv. ‘Pioneer 1184’); conditions: for Plant response rating (0 to 100 scale): Preemergence, ZEAMD
Source text: as §1, §2

[3] = tested on: common ragweed (AMBEL; Ambrosia artemisiifolia); conditions: for Plant response rating (0 to 100 scale): Preemergence, AMBEL
Source text: as §1, §2

[4] = tested on: common waterhemp (AMATU; Amaranthus rudis); conditions: for Plant response rating (0 to 100 scale): Preemergence, AMATU
Source text: as §1, §2

[5] = tested on: giant foxtail (SETFA; Setaria faberi); conditions: for Plant response rating (0 to 100 scale): Preemergence, SETFA
Source text: as §1, §2

[6] = tested on: soybean (GLXMA; Glycine max, cv. Pioneer 35T58); conditions: for Plant response rating (0 to 100 scale): Preemergence, GLXMA
Source text: as §1, §2

[7] = tested on: palmer amaranth (AMAPA; Amaranthus palmeri); conditions: for Plant response rating (0 to 100 scale): Preemergence, AMAPA
Source text: as §1, §2

Cn1nc(C(F)(F)F)c(CS(=O)(=O)C2=NOC(C)(C)C2)c1OC(F)F [Pyroxasulfone, pyroxasulfone, reference compound]
ERICA plant response rating, 0 to 100 scale ([1]; postemergence, 4 g a.i./ha): 0
ERICA plant response rating, 0 to 100 scale ([1]; postemergence, 8 g a.i./ha): 0
ERICA plant response rating, 0 to 100 scale ([1]; preemergence, 4 g a.i./ha): 79
ERICA plant response rating, 0 to 100 scale ([1]; preemergence, 8 g a.i./ha): 100
ZEAMD plant response rating, 0 to 100 scale ([2]; postemergence, 4 g a.i./ha): 0
ZEAMD plant response rating, 0 to 100 scale ([2]; postemergence, 8 g a.i./ha): 0
ZEAMD plant response rating, 0 to 100 scale ([2]; preemergence, 4 g a.i./ha): 0
ZEAMD plant response rating, 0 to 100 scale ([2]; preemergence, 8 g a.i./ha): 0
AMBEL plant response rating, 0 to 100 scale ([3]; postemergence, 4 g a.i./ha): 0
AMBEL plant response rating, 0 to 100 scale ([3]; postemergence, 8 g a.i./ha): 24
AMBEL plant response rating, 0 to 100 scale ([3]; preemergence, 4 g a.i./ha): 0
AMBEL plant response rating, 0 to 100 scale ([3]; preemergence, 8 g a.i./ha): 0
AMATU plant response rating, 0 to 100 scale ([4]; postemergence, 4 g a.i./ha): 0
AMATU plant response rating, 0 to 100 scale ([4]; postemergence, 8 g a.i./ha): 0
AMATU plant response rating, 0 to 100 scale ([4]; preemergence, 4 g a.i./ha): 5
AMATU plant response rating, 0 to 100 scale ([4]; preemergence, 8 g a.i./ha): 45
SETFA plant response rating, 0 to 100 scale ([5]; postemergence, 4 g a.i./ha): 0
SETFA plant response rating, 0 to 100 scale ([5]; postemergence, 8 g a.i./ha): 6
SETFA plant response rating, 0 to 100 scale ([5]; preemergence, 4 g a.i./ha): 76
SETFA plant response rating, 0 to 100 scale ([5]; preemergence, 8 g a.i./ha): 98
GLXMA plant response rating, 0 to 100 scale ([6]; postemergence, 4 g a.i./ha): 0
GLXMA plant response rating, 0 to 100 scale ([6]; postemergence, 8 g a.i./ha): 15
GLXMA plant response rating, 0 to 100 scale ([6]; preemergence, 4 g a.i./ha): 0
GLXMA plant response rating, 0 to 100 scale ([6]; preemergence, 8 g a.i./ha): 0
AMAPA plant response rating, 0 to 100 scale ([7]; postemergence, 4 g a.i./ha): 15
AMAPA plant response rating, 0 to 100 scale ([7]; postemergence, 8 g a.i./ha): 0
AMAPA plant response rating, 0 to 100 scale ([7]; preemergence, 4 g a.i./ha): 0
AMAPA plant response rating, 0 to 100 scale ([7]; preemergence, 8 g a.i./ha): 38

CC(C)N(C)S(=O)(=O)NC(=O)c1cc(-n2c(=O)cc(C(F)(F)F)n(C)c2=O)c(F)cc1Cl [Saflufenacil, saflufenacil, reference compound]
Plant response rating (0 to 100 scale) ([1]; Saflufenacil 4 g a.i./ha alone): 94
Plant response rating (0 to 100 scale) ([1]; Saflufenacil 8 g a.i./ha alone): 100
ERICA plant response rating, 0 to 100 scale ([1]; postemergence, 4 g a.i./ha): 95
ERICA plant response rating, 0 to 100 scale ([1]; postemergence, 8 g a.i./ha): 100
Plant response rating (0 to 100 scale) ([2]; Saflufenacil 4 g a.i./ha alone): 0
Plant response rating (0 to 100 scale) ([2]; Saflufenacil 8 g a.i./ha alone): 0
ZEAMD plant response rating, 0 to 100 scale ([2]; postemergence, 4 g a.i./ha): 15
ZEAMD plant response rating, 0 to 100 scale ([2]; postemergence, 8 g a.i./ha): 70
Plant response rating (0 to 100 scale) ([3]; Saflufenacil 4 g a.i./ha alone): 96
Plant response rating (0 to 100 scale) ([3]; Saflufenacil 8 g a.i./ha alone): 100
AMBEL plant response rating, 0 to 100 scale ([3]; postemergence, 4 g a.i./ha): 100
AMBEL plant response rating, 0 to 100 scale ([3]; postemergence, 8 g a.i./ha): 100
Plant response rating (0 to 100 scale) ([4]; Saflufenacil 4 g a.i./ha alone): 55
Plant response rating (0 to 100 scale) ([4]; Saflufenacil 8 g a.i./ha alone): 84
AMATU plant response rating, 0 to 100 scale ([4]; postemergence, 4 g a.i./ha): 85
AMATU plant response rating, 0 to 100 scale ([4]; postemergence, 8 g a.i./ha): 90
Plant response rating (0 to 100 scale) ([5]; Saflufenacil 4 g a.i./ha alone): 0
Plant response rating (0 to 100 scale) ([5]; Saflufenacil 8 g a.i./ha alone): 0
SETFA plant response rating, 0 to 100 scale ([5]; postemergence, 4 g a.i./ha): 23
SETFA plant response rating, 0 to 100 scale ([5]; postemergence, 8 g a.i./ha): 55
Plant response rating (0 to 100 scale) ([6]; Saflufenacil 4 g a.i./ha alone): 0
Plant response rating (0 to 100 scale) ([6]; Saflufenacil 8 g a.i./ha alone): 0
GLXMA plant response rating, 0 to 100 scale ([6]; postemergence, 4 g a.i./ha): 74
GLXMA plant response rating, 0 to 100 scale ([6]; postemergence, 8 g a.i./ha): 91
Plant response rating (0 to 100 scale) ([7]; Saflufenacil 4 g a.i./ha alone): 35
Plant response rating (0 to 100 scale) ([7]; Saflufenacil 8 g a.i./ha alone): 88
AMAPA plant response rating, 0 to 100 scale ([7]; postemergence, 4 g a.i./ha): 84
AMAPA plant response rating, 0 to 100 scale ([7]; postemergence, 8 g a.i./ha): 70
